Experimental findings from PMC12016938, “A small molecule PKCε inhibitor reduces hyperalgesia induced by paclitaxel or opioid withdrawal” (JCI Insight, 2025) are described below.

Assay [1] deals with T1, PKCε (Homo sapiens, UniProt Q02156).
T1 sequence (Q02156 1-737): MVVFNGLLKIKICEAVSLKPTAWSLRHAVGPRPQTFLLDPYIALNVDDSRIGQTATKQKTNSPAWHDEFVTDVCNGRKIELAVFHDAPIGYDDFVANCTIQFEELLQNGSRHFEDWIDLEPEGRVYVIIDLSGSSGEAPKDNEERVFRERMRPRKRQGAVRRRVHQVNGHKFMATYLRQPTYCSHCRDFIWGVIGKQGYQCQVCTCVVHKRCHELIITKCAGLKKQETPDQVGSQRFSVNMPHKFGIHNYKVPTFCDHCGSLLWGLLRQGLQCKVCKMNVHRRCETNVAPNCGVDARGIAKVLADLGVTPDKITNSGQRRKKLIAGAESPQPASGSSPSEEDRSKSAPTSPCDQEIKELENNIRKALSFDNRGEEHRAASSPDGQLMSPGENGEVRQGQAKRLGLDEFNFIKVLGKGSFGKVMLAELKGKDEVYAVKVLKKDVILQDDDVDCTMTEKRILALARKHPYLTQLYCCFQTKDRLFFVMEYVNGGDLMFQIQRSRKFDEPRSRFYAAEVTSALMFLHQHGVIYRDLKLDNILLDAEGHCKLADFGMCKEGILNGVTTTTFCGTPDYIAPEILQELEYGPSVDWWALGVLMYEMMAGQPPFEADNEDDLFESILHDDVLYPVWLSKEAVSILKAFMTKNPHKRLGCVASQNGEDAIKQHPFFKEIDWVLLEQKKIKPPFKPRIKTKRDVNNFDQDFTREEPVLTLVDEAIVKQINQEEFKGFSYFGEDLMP
Put plainly: scanMax kinome panel (Eurofins-DiscoverX), PKCε. The settings on record: 200 nM CP612. Set-up: purchased Eurofins-DiscoverX. In kind it is binding. How it is done:
CP612 was screened for kinome specificity at 200 nM against 468 kinases using the scanMax assay panel from Eurofins-DiscoverX. CP612 inhibited 10 other WT kinases besides PKCε, all to < 10% of control: CLK1 (CDC Like Kinase 1), CLK4, PKN1 (Protein kinase N1), PKN2, PKCδ, PKCη, PKCθ, PRKG2 (Protein Kinase CGMP-Dependent 2), ROCK1, and ROCK2.

Assay [2] deals with T1, PKCε. Kind of assay: Lance-FRET kinase assay, PKCε. In kind it is biochemical. Details: His; AVI; made in house; host or cells: Sf9 cells. How it is done:
Kinase assays. CP612 was assayed against His-AVI–tagged human PKCε (1 nM) produced in Sf9 cells, and ROCK1 (Carna Biosciences; 5 nM) using the Lance-FRET kinase assay system (PerkinElmer Revvity). Other human recombinant PKCs (SignalChem Biotech) were assayed in triplicate at the following concentrations: PKCβII 1.6 nM, PKCγ 500 pM, PKCδ 5 nM, PKCθ 500 pM, and PKCζ 500 pM. PKCs were incubated in a 15 μL reaction volume with kinase buffer (20 mM Tris-HCL [pH 7.4], 10 mM MgCl2, 0.25 mM EGTA, 0.1 mg/mL BSA, and 0.15% Triton X-100), 50 nM ULight-labeled CREBtide […] (PerkinElmer, TRF0107, Revvity), and test compound. Reactions were initiated by adding 2.5 μM ATP at 27°C and were terminated after 60 minutes with 10 μL of 2.5× Stop Solution/Detection Mix containing 20 mM EDTA and 4 nM LANCE Ultra Europium anti–phospho-[…] (Ala25Ser) peptide antibody (PerkinElmer, TRF0200, Revvity). After incubation at 27°C for another 60 minutes, phosphorylation was detected using a FlexStation 3 Microplate Reader (Molecular Devices) in LANCE TR-FRET mode (excitation = 340 nm, emission = 665 nm) and expressed as relative fluorescence units (RFU). The percentage of inhibition was calculated as: (signal without test compound − signal with test compound)/(signal without test compound − signal without ATP) × 100. The Z’ factor for this assay ranged between 0.72 and 0.86.
Kinase assays used 11-point concentration-response curves and results were analyzed by nonlinear regression using Prism 9 (GraphPad Software) to determine IC50 values. Other analyses were performed on Prism 9 and Statistica (Tibco Software). Scores for pain threshold, conditioned place preference, and self-administration were analyzed by ANOVA using the following factors. […] We used a Tukey’s test for post hoc comparisons across groups and Dunnett’s test for post hoc comparisons with own pain thresholds at baseline values in the pain studies. Somatic withdrawal scores were analyzed with a Kruskal-Wallis test due to the nonparametric nature of those data, followed by nonparametric post hoc comparisons according to Siegel and Castellan ([40]). A P value less than 0.05 was considered significant.

Molecules are shown by their SMILES. Where two headings read alike, the source gives them in different places.

As to `N[C@H](CNC(=O)C1(c2ccc(Cl)cc2)CCCC1)c1ccc(C(=O)Nc2ccncc2)cc1` [CP612], at PKCε [1], the “scanMax result, PKCε” value is “inhibited”. The inhibition at 0.03 µM on PKCε [2] (30 nM CP612, read-out: Inhibition of novel PKCs (PKCε)) was above 50%. Also, the “Relative potency within the nPKC subfamily” value at PKCε [2] (Figure 1B) is reported as “most potent”. The IC50 on PKCε [2] (Figure 1B PKC isozyme panel, read-out: IC50 PKCε) came to 2.03 nM; at PKCε [2] (mean of all runs (count 42 CP612; 38 CIDD-0072424), 2.5 μM ATP, read-out: IC50 (nM) [Enzyme: PKCε], mean), 1.9 ± 0.4 nM. For the same compound, at PKCε [2] (mean of ratios of all runs), the “ROCK1/PKCε ratio, mean” value is on record as 54.8.

In general, inhibition refers to the percentage by which the read-out fell short of the control. As a reminder, the IC50 is the point on the concentration scale where inhibition reaches its midpoint.
